Assay results from paper PMC11969024, “Development of chemokine network inhibitors using combinatorial saturation mutagenesis” (Communications Biology, 2025).

What was measured:
[1] = system: activated CD8+T-cells (ATC); assay: Activated T-cell (ATC) migration induced by individual chemokines, inhibition by peptide; assay type: cell-based, human; details: for inhibition of CCL19, CCL21, CXCL9, and CXCL11-induced migration of ATCs compared to parental HD2: peptide 10 uM, chemokines at EC80, Dunnett's test
Method: Cell lines were confirmed mycoplasma free by monthly testing using a MycoAlert^TM kit (LT07-118, Lonza) following the manufacturer’s instructions. THP1 cells: THP1 cells (ECACC 88081201, a human monocyte leukemia cell line[51]) were obtained from ECACC and were cultured in T175 flasks at 0.3-1 × 10^6 cells/mL in Roswell Park Memorial Institute (RPMI) 1640 medium (R0883, Sigma) with 10% FBS (F9665, Sigma) and 5mM L-glutamine (G7513, Sigma), 37 °C, 5% CO2. J:CXCR1 cells: The J:CXCR1 cell line was cultured in the same manner as THP1 cells at 0.15-1 × 10^6 cells per mL[37]. Activated T-cells: T-cells were isolated, activated and expanded as follows. Briefly, density gradient centrifugation using Lymphoprep^TM density gradient medium (07801, […] Technologies) and a SepMate^TM isolation tube (85450, […] Technologies) was used to isolate peripheral blood mononuclear cells from human leukocyte cones. Two rounds of purification using a human CD8 + T-cell isolation kit (480011, BioLegend) were used to isolate CD8 + T-cells from peripheral blood mononuclear cells. Activation of CD8 + T-cells was performed in ImmunoCult^TM-XF T-cell expansion medium (10982, […] Technologies) with an anti-CD3/anti-CD28 T-cell activator at 25 μl/ml (10991, […] Technologies), supplemented with 10 ng/ml recombinant human IL-2 (200-02, PeproTech) with 1% penicillin/streptomycin. T-cells were passaged every 2–3 days in TexMACS medium (130-097-196, Miltenyi Biotec), supplemented with 10 ng/ml human IL-2 (200-05-250, Peprotech) and incubated at 37 °C in 5% CO2. CD8 + T-cells were frozen at day 10-13 after initial activation, at 20×10^6 cell/ml in TexMACS medium supplemented with 10% DMSO (D2650, Sigma) in liquid nitrogen. Activated CD8^+ T-cells were recovered in TexMACs medium at 0.3 × 10^6 cell/ml and incubated at 37 °C in 5% CO2, 24 h prior to use. For buffy coat experiments a mixture of primary human monocytes, granulocytes and lymphocytes was isolated from human buffy coat. Briefly, RBCs were sedimented in HetaSep (07806, […] Technologies) with 1 mL of HetaSep per 5 mL of blood for 15 min at 37 °C. The buffy coat layer was collected from the top and washed in 50 ml MACS buffer (PBS (P4417, Sigma), 0.5% BSA (A7030, Sigma), 0.075% EDTA (E5134, Sigma), pH 7.2), by centrifugation at 2000 g for 10 min at room temperature. The pellet was resuspended in 10 mL of 1x RBC lysis solution (130-094-183, Miltenyi Biotec) and lysed for 10 min at room temperature. The cells were then washed in MACS buffer twice as above. The final pellet was resuspended in 1 mL of MACS buffer per 5 mL of initial blood volume and counted using cell size FSC-H/SSC-H parameters with gate settings previously defined by immunostaining (see below). The leukocytes were then resuspended in assay buffer for cell migration and used within 30 min of isolation.
Cell counts were determined using an ATTUNE NxT Flow Cytometer with Cytkick autosampler (ThermoFisher), based on cell size parameters FSC-H/SSC-H, with previously defined gate settings. FSC-H/SSC-H gate settings for primary white blood cells from buffy coats were determined using flow cytometry to establish the granulocyte, monocyte and lymphocyte populations (Supplementary Fig. 13). Briefly, cells were labelled with anti-CD3 (Miltenyi Biotec, 130-113-135) to identify the T cell population, anti-CD14 (Miltenyi Biotec, 130-110-578) to identify the monocyte population, and with anti-CD16 (Miltenyi Biotec, 130-113-951) to identify the granulocyte population. Negative control cells were labelled with anti-human IgG1 (Miltenyi Biotec, 130-113-434). All antibodies were allophycocyanin (APC) conjugated. 100,000 white blood cells were added to Eppendorf tubes and centrifuged at 300 g for 3 min. The supernatant was discarded, and the cells resuspended in 98 µL of MACS buffer (1× PBS, 2 mM EDTA and 0.5% BSA, sterile filtered). 2 µl of antibody was added to the cells. […]

[2] = system: J:CXCR1 cells (Jurkat cells stably transfected with CXCR1); assay: J:CXCR1 cell migration induced by CXCL6, inhibition by peptide; assay type: cell-based, human; details: peptide 10 uM; CXCL6 at EC80; Dunnett's test
Method: Cell lines were confirmed mycoplasma free by monthly testing using a MycoAlert^TM kit (LT07-118, Lonza) following the manufacturer’s instructions. THP1 cells: THP1 cells (ECACC 88081201, a human monocyte leukemia cell line[51]) were obtained from ECACC and were cultured in T175 flasks at 0.3-1 × 10^6 cells/mL in Roswell Park Memorial Institute (RPMI) 1640 medium (R0883, Sigma) with 10% FBS (F9665, Sigma) and 5mM L-glutamine (G7513, Sigma), 37 °C, 5% CO2. J:CXCR1 cells: The J:CXCR1 cell line was cultured in the same manner as THP1 cells at 0.15-1 × 10^6 cells per mL[37]. Activated T-cells: T-cells were isolated, activated and expanded as follows. Briefly, density gradient centrifugation using Lymphoprep^TM density gradient medium (07801, […] Technologies) and a SepMate^TM isolation tube (85450, […] Technologies) was used to isolate peripheral blood mononuclear cells from human leukocyte cones. Two rounds of purification using a human CD8 + T-cell isolation kit (480011, BioLegend) were used to isolate CD8 + T-cells from peripheral blood mononuclear cells. Activation of CD8 + T-cells was performed in ImmunoCult^TM-XF T-cell expansion medium (10982, […] Technologies) with an anti-CD3/anti-CD28 T-cell activator at 25 μl/ml (10991, […] Technologies), supplemented with 10 ng/ml recombinant human IL-2 (200-02, PeproTech) with 1% penicillin/streptomycin. […] The final pellet was resuspended in 1 mL of MACS buffer per 5 mL of initial blood volume and counted using cell size FSC-H/SSC-H parameters with gate settings previously defined by immunostaining (see below). […]
Cell counts were determined using an ATTUNE NxT Flow Cytometer with Cytkick autosampler (ThermoFisher), based on cell size parameters FSC-H/SSC-H, with previously defined gate settings. FSC-H/SSC-H gate settings for primary white blood cells from buffy coats were determined using flow cytometry to establish the granulocyte, monocyte and lymphocyte populations (Supplementary Fig. 13). […]

Sequence	inhibition of chemokines e.g. CCL19, CCL21 and CXCL11 ([1]; ATC migration, statement of the discussion)	inhibition of CCL19, CCL21, CXCL9, and CXCL11-induced migration of ATCs compared to parental HD2 [1]	inhibition of CXCL6-induced migration of J:CXCR1 cells compared to parental HD2 [2]
EEDDWTAYAPLTCYFT [HD2Y5W, HD2 point mutant]	de novo inhibition	significant improvement in inhibition	
EEDDYWAYAPLTCYFT [HD2T6W, HD2 point mutant]		significant improvement in inhibition	significant improvement in inhibition
